{"source": "paper PMC3962266", "about": "(Journal of medicinal chemistry, 2013)", "origin": "cited, not measured here", "key": {"[1]": {"assay": "not given", "remark": "listed apart in the source"}, "[2]": {"assay": "not given", "remark": "listed apart in the source"}}}
{"smiles": "COC(=O)[C@H](c1ccccc1Cl)N1CCc2sccc2C1", "note": "[clopidogrel]", "values": [{"measurement": "Further increase of bleeding risk on addition as combination therapy", "setting": "added to aspirin", "value": 1, "unit": "%"}]}
{"smiles": "CC(=O)Oc1ccccc1C(=O)O", "note": "[aspirin]", "values": [{"measurement": "Baseline major bleeding risk (gastrointestinal or intracranial)", "value": "1–4%"}]}
{"smiles": "CCCCNc1ncc2c(-c3ccc(S(=O)(=O)N4CCOCC4)cc3)nn(C3CCC(O)CC3)c2n1", "note": "(stereo not shown) [UNC1062]", "values": [{"measurement": "Pharmacokinetic (PK) properties", "setting": "[1]", "value": "poor pharmacokinetic (PK) properties"}, {"measurement": "Solubility", "setting": "[2]", "value": "low solubility"}]}
